Laboratory results taken from the supplement of paper PMC11061612.

Experiments:
Experiment in all cases: Bliss excess, mean over the matrix (fraction); higher = more synergy
[1] = tested on: RT-112 (Bladder Carcinoma)
Summary of the method: (§1)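 Cell lines in DMEM/F12 or RPMI with 10% FBS were plated in 1536-well plates, held 24 hours at 37°C, 5% CO2, then given two-drug dose matrices for 72 hours (DMSO typically 0.2%). Viability was read by CellTiter-Glo 2.0 luminescence and scaled as inhibition from 0 (vehicle wells) to 1 (blank wells). Combination Emax is the second-highest inhibition in the matrix; Bliss excess is observed combination effect minus expected EA + EB − EA·EB, EA and EB being single-agent effects.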

[2] = tested on: KYSE-410 (Esophageal Squamous Cell Carcinoma)
Summary of the method: as §1

[3] = tested on: NCI-H69 (Small Cell Lung Carcinoma)
Summary of the method: as §1

[4] = tested on: OC-314 (Ovarian Carcinoma)
Summary of the method: as §1

[5] = tested on: NCI-H2795 (Mesothelioma)
Summary of the method: as §1

[6] = tested on: TE-4 (Esophageal Squamous Cell Carcinoma)
Summary of the method: as §1

[7] = tested on: COLO-829 (Melanoma)
Summary of the method: as §1

[8] = tested on: SW1271 (Small Cell Lung Carcinoma)
Summary of the method: as §1

[9] = tested on: SH-4 (Melanoma)
Summary of the method: as §1

[10] = tested on: HO-1-u-1 (Oral Cavity Carcinoma)
Summary of the method: as §1

[11] = tested on: NB14 (Neuroblastoma)
Summary of the method: as §1

[12] = tested on: HCC-15 (Squamous Cell Lung Carcinoma)
Summary of the method: as §1

[13] = tested on: K5 (Thyroid Gland Carcinoma)
Summary of the method: as §1

[14] = tested on: SK-OV-3 (Ovarian Carcinoma)
Summary of the method: as §1

[15] = tested on: SW626 (Colorectal Carcinoma)
Summary of the method: as §1

[16] = tested on: Hs-633T (Other Solid Carcinomas)
Summary of the method: as §1

[17] = tested on: KARPAS-231 (B-Cell Non-Hodgkin's Lymphoma)
Summary of the method: as §1

[18] = tested on: HMV-II (Melanoma)
Summary of the method: as §1

[19] = tested on: SW1116 (Colorectal Carcinoma)
Summary of the method: as §1

[20] = tested on: RKO (Colorectal Carcinoma)
Summary of the method: as §1

Structure (SMILES)	Bliss excess [1]	Bliss excess [2]	Bliss excess [3]	Bliss excess [4]	Bliss excess [5]	Bliss excess [6]	Bliss excess [7]	Bliss excess [8]	Bliss excess [9]	Bliss excess [10]	Bliss excess [11]	Bliss excess [12]	Bliss excess [13]	Bliss excess [14]	Bliss excess [15]	Bliss excess [16]	Bliss excess [17]	Bliss excess [18]	Bliss excess [19]	Bliss excess [20]
CN(C)CCCOc1ccc(-c2ccc3ncc4c(c3c2)n(C2CCOCC2)c(=O)n4C)cn1 [AZD0156] + C=CCn1c(=O)c2cnc(Nc3ccc(N4CCN(C)CC4)cc3)nc2n1-c1cccc(C(C)(C)O)n1 [AZD1775] (first compound max 1 µM, partner max 1 µM)	-0.0193	-0.0464	-0.129	-0.0141	-0.0131	-0.0599	-0.0486	-0.0895	-0.0219	0.0563	-0.0198	-0.0346	-0.0003	-0.0433	-0.0576	-0.007	0.0355	-0.0182	-0.0336	-0.0252
CN(C)CCCOc1ccc(-c2ccc3ncc4c(c3c2)n(C2CCOCC2)c(=O)n4C)cn1 [AZD0156] + CCN(CCO)CCCOc1ccc2c(Nc3cc(CC(=O)Nc4cccc(F)c4)[nH]n3)ncnc2c1 [AZD2811] (first compound max 1 µM, 7x7, partner max 1 µM)	-0.0098	-0.0431	0.0012	0.0078	0.0025	-0.0129	-0.0587	-0.0322	-0.0328	0.0299	-0.0955	-0.0506	-0.0334	-0.0533	-0.0392	-0.0139	-0.0205	-0.0133	-0.0339	0.014
CN(C)CCCOc1ccc(-c2ccc3ncc4c(c3c2)n(C2CCOCC2)c(=O)n4C)cn1 [AZD0156] + C[C@@H]1COCCN1C2=NC(=NC(=C2)C3(CC3)[S@](=N)(=O)C)C4=C5C=CNC5=NC=C4 [AZD6738] (first compound max 1 µM, 7x7, partner max 10 µM)	0.0798	-0.0201	-0.0233	0.0095	-0.0643	0.0507	-0.0327	0.0015	0.0052	0.0189	-0.0448	-0.0021	-0.0074	-0.015	-0.0214	0.0537	0.0732	-0.0018	-0.034	0.0186
CN(C)CCCOc1ccc(-c2ccc3ncc4c(c3c2)n(C2CCOCC2)c(=O)n4C)cn1 [AZD0156] + O=C(c1cc(Cc2n[nH]c(=O)c3ccccc23)ccc1F)N1CCN(C(=O)C2CC2)CC1 [Olaparib] (first compound max 3 µM, partner max 3 µM)	0.0239	0.0007	0.0386	0.145	0.0432	0.0387	-0.0578	0.0098	0.0237	0.0795	0.218	0.136	0.0542	-0.0179	-0.0326	0.17	0.0651	-0.0287	-0.0431	0.0736
C=CCn1c(=O)c2cnc(Nc3ccc(N4CCN(C)CC4)cc3)nc2n1-c1cccc(C(C)(C)O)n1 [AZD1775] + C1CN(CCC1(C(=O)N[C@@H](CCO)C2=CC=C(C=C2)Cl)N)C3=NC=NC4=C3C=CN4 [Capivasertib] (first compound max 3 µM, partner max 3 µM)	-0.0348	-0.0015	-0.0601	-0.0158	-0.0042	-0.045	0.0335	-0.0161	-0.0713	0.037	-0.0551	-0.0331	0.0493	-0.0692	-0.0606	0.0389	0.0311	-0.0774	-0.0561	0.0179
C=CCn1c(=O)c2cnc(Nc3ccc(N4CCN(C)CC4)cc3)nc2n1-c1cccc(C(C)(C)O)n1 [AZD1775] + CCc1c2c(nc3ccc(O)cc13)-c1cc3c(c(=O)n1C2)COC(=O)[C@]3(O)CC [SN-38] (first compound max 1 µM, partner max 0.3 µM)	0.109		-0.0629	0.0032	-0.0951			-0.0391	-0.072	0.0391	-0.007		-0.0219	-0.0557		-0.0522		-0.122	-0.0987	-0.0377
C=CCn1c(=O)c2cnc(Nc3ccc(N4CCN(C)CC4)cc3)nc2n1-c1cccc(C(C)(C)O)n1 [AZD1775] + C[C@@H]1COCCN1C2=NC(=NC(=C2)C3(CC3)[S@](=N)(=O)C)C4=C5C=CNC5=NC=C4 [AZD6738] (first compound max 1 µM, partner max 10 µM)	0.0578	-0.0061	0.0962	0.0937	-0.0134	0.0485	-0.0194	-0.0474	-0.0746	0.0263	0.0462	0.0035	-0.0453	-0.0067	0.0354	0.0309	0.0545	-0.0327	-0.0075	0.0529
C=CCn1c(=O)c2cnc(Nc3ccc(N4CCN(C)CC4)cc3)nc2n1-c1cccc(C(C)(C)O)n1 [AZD1775] + O=C(c1cc(Cc2n[nH]c(=O)c3ccccc23)ccc1F)N1CCN(C(=O)C2CC2)CC1 [Olaparib] (first compound max 1 µM, partner max 10 µM)	0.0461	-0.04	-0.0166	0.0291	-0.0182	0.0271	-0.0137	-0.0488	-0.0882	-0.0521	-0.0306	-0.0004	-0.0175	-0.0465	-0.0526	-0.0188	-0.0554	-0.0279	-0.0069	-0.0119
CCN(CCO)CCCOc1ccc2c(Nc3cc(CC(=O)Nc4cccc(F)c4)[nH]n3)ncnc2c1 [AZD2811] + C=CCn1c(=O)c2cnc(Nc3ccc(N4CCN(C)CC4)cc3)nc2n1-c1cccc(C(C)(C)O)n1 [AZD1775] (first compound max 1 µM, partner max 1 µM)	0.0233	-0.0179	-0.0671	0.0976	-0.0117	-0.0057	0.0009	-0.02	-0.0484	-0.0168	-0.0236	-0.0049	-0.0062	-0.068	-0.0443	-0.008	0.0395	-0.0339	-0.0275	-0.0625
CCN(CCO)CCCOc1ccc2c(Nc3cc(CC(=O)Nc4cccc(F)c4)[nH]n3)ncnc2c1 [AZD2811] + C[C@@H]1COCCN1C2=NC(=NC(=C2)C3(CC3)[S@](=N)(=O)C)C4=C5C=CNC5=NC=C4 [AZD6738] (first compound max 1 µM, 7x7, partner max 10 µM)	-0.0581	-0.0514	-0.0552	0.0052	-0.0517	-0.047	-0.0217	-0.0829	-0.0474	-0.023	-0.0888	-0.0238	-0.086	-0.117	-0.0724	-0.0197	0.0064	-0.0395	-0.0234	-0.0152
Cc1c2c(nn1C)CSCc1cc(n(C)n1)CSc1cc(c3ccccc3c1)OCCCc1c(C(=O)O)n(C)c3c-2c(Cl)ccc13 [AZD5991] + CCN(CCO)CCCOc1ccc2c(Nc3cc(CC(=O)Nc4cccc(F)c4)[nH]n3)ncnc2c1 [AZD2811] (first compound max 1 µM, 7x7, partner max 1 µM)	0.125	0.045	0.0092	0.0457	0.041	0.063	-0.0319	-0.0403	0.0439	0.0569	0.0085	-0.0144	-0.0431	0.0018	0.0141	-0.0106	-0.007		-0.003	0.0201
CS(=O)(=O)CCNCc1ccc(-c2ccc3ncnc(Nc4ccc(OCc5cccc(F)c5)c(Cl)c4)c3c2)o1 [Lapatinib] + Cn1cnc2c(F)c(Nc3ccc(Br)cc3Cl)c(C(=O)NOCCO)cc21 [Selumetinib] (first compound max 10 µM, 7x7, partner max 10 µM)	0.0134		-0.0384	0.0644	-0.0488			-0.0167	-0.0519	-0.0047	0.0397		-0.022	-0.0287		0.026		-0.141	0.0744	0.0413
CS(=O)(=O)CCNCc1ccc(-c2ccc3ncnc(Nc4ccc(OCc5cccc(F)c5)c(Cl)c4)c3c2)o1 [Lapatinib] + NC1(c2ccc(-c3nc4ccn5c(=O)[nH]nc5c4cc3-c3ccccc3)cc2)CCC1 [MK-2206] (first compound max 10 µM, 7x7, partner max 10 µM)	0.0746		0.0389	0.043	0.0513		-0.0245	0.0083	0.0025	0.0235	0.0136		0.0293	0.0257		0.0256		-0.0337	-0.01	-0.0002
CCc1c2c(nc3ccc(O)cc13)-c1cc3c(c(=O)n1C2)COC(=O)[C@]3(O)CC [SN-38] + O=C(c1cc(Cc2n[nH]c(=O)c3ccccc23)ccc1F)N1CCN(C(=O)C2CC2)CC1 [Olaparib] (first compound max 0.3 µM, 7x7, partner max 10 µM)	0.116	0.0014	-0.0035	0.117	0.08	-0.0103	-0.0186	0.129	0.0956	0.0415	0.0063		0.0566	0.0571	0.0064	0.17	0.113	0.0175	0.0152	0.0223
Cc1nc(-c2cn3c(n2)-c2ccc(-c4cnn(C(C)(C)C(N)=O)c4)cc2OCC3)n(C(C)C)n1 [Taselisib] + O=C(Nc1ccc2[nH]nc(-c3ccncc3)c2c1)[C@@H]1CCN(CC(=O)N2CCN(c3ccc(-c4ncccn4)cc3)CC2)C1 [SCH772984] (first compound max 10 µM, 7x7, partner max 5 µM)	0.108		0.0251	0.0521	0.0704			-0.0096	0.0374	0.0064	0.192		0.0419	0.0609		0.0891		0.0285	0.0831	0.146
